Experimental findings from patent publication US20100285959A1, “HERBICIDAL MIXTURES” (priority 2006, published 2010) are described below.

The test system of series [1] is corn (ZEAMD). Put plainly: Test 6 field trial, postemergence. The class given is in vivo, Zea mays ssp. indentata. Particulars: 1120 g a.i./ha. An excerpt: Corn seeds (hybrid ‘Pioneer 35Y62’) were planted in mid spring season, 3.8 cm deep in a silt loam soil having 4% organic matter and a pH of 5.8. Plots were 10.7 m long by 1.5 m wide with rows spaced 76 cm apart. Seeds were spaced 18 cm apart within the rows. The field was managed using conventional tillage practices. […] All treatments included a surfactant except glufosinate treatments, both alone and in combination. […] Results are summarized in Table 6 and are the means of the three replicates.

In series [2] the test system is common ragweed (AMBEL). The series is described as follows: Test 8 field trial, preemergence. To be noted: g a.i./ha: Cpd 2 100, Atrazine 1680, S-Metolachlor 1870. The series is classed as in vivo, Ambrosia artemisiifolia. From the text:
(§1) Corn seeds (hybrid ‘Pioneer 31G96’) were planted in mid spring season, 3.8 cm deep in a clay loam soil having 2% organic matter and a pH of 6.6. Plots were 6.1 m long by 3.0 m wide with rows spaced 76 cm apart. Seeds were spaced 15 cm apart within the rows. The field was managed using conventional tillage practices. […] A few of the weed species could not be evaluated at every timing. […] Results are the means of the three replicates.

Series [3] concerns ivyleaf morningglory (IPOHE). The series is described as follows: Test 10 field trial, preemergence. The series is classed as in vivo, Ipomoea hederacea. Particulars: 28 DAA; g a.i./ha: Cpd 2 100, Atrazine 1680, S-Metolachlor 1870. From the text:
(§2) Corn seeds (hybrid ‘Pioneer 33P65 RR’) were planted in mid spring season, 2.5 cm deep in a silt loam soil. Plots were 9.1 m long by 3.0 m wide with rows spaced 76 cm apart. The field was managed using conventional tillage practices. […] Results are the means of the three replicates.

The test system of series [4] is giant foxtail (SETFA). Put plainly: Test 5 field trial, postemergence. The class given is in vivo, Setaria faberi. Particulars: atrazine 1120, glufosinate 470 or glyphosate 1120 g a.i./ha alone. From the text:
(§3) Corn seeds (hybrid ‘Pioneer 38H69’) were planted in mid spring season, 5.1 cm deep in a silty clay loam soil having 3% organic matter and a pH of 6.5. Plots were 9.1 m long by 3.0 m wide with rows spaced 76 cm apart. The field was managed using conventional tillage practices. […] All treatments included a surfactant except glufosinate treatments, both alone and in combination. […] Results are summarized in Table 5 and are the means of the three replicates.

Series [5] relates to velvetleaf (ABUTH). The series is described as follows: Test 10 field trial, preemergence. The series is classed as in vivo, Abutilon theophrasti. To be noted: 28 DAA; g a.i./ha: Cpd 2 100, Atrazine 1680, S-Metolachlor 1870.
Source text: as §2

Series [6] relates to giant foxtail (SETFA). The series is described as follows: Test 8 field trial, preemergence. The class given is in vivo, Setaria faberi. To be noted: g a.i./ha: Cpd 2 100, Atrazine 1680, S-Metolachlor 1870.
Source text: as §1

Series [7] deals with common cocklebur (XANST). Put plainly: Test 10 field trial, preemergence. To be noted: 28 DAA; g a.i./ha: Cpd 2 100, Atrazine 1680, S-Metolachlor 1870. The class given is in vivo, Xanthium strumarium ssp. strumarium.
Source text: as §2

Series [8] relates to redroot pigweed (AMARE). The series is described as follows: Test 8 field trial, preemergence. The series is classed as in vivo, Amaranthus retroflexus. To be noted: 56 DAA; g a.i./ha: Cpd 2 100, Atrazine 1680, S-Metolachlor 1870.
Source text: as §1

Series [9] deals with Brazilian crabgrass (DIGHO). The series is described as follows: Test 11 field trial, preemergence. The class given is in vivo, Digitaria horizontalis. Also on record: scale not given here. An excerpt:
Corn seeds (hybrid ‘Pioneer 3041’) were planted in mid spring season, 5 cm deep in a clay soil having 2.6% organic matter and a pH of 5.6. Plots were 8 m long by 1.5 m wide with rows spaced 80 cm apart. Seeds were spaced 15 cm apart within the rows. The field was managed using conventional tillage practices. […] Treatments consisted of Compound 2 or
Goosegrass was not evaluated 16 or 91 days after application.

The test system of series [10] is field pennycress (THLAR). The series is described as follows: Test 1 field trial, preemergence. Particulars: 28 DAA; g a.i./ha: Atrazine 1680; S-Metolachlor 1870. The series is classed as in vivo, Thlaspi arvense. From the text:
(§4) Corn seeds (hybrid ‘Pioneer 34N43’) were planted in mid spring season, 3.8 cm deep in a silt loam soil having 4.6% organic matter and a pH of 6. Plots were 10.7 m long by 1.5 m wide with rows spaced 76 cm apart. Seeds were spaced 18 cm apart within the rows. The field was managed using conventional tillage practices. […] Results are summarized in Table 1 and are the means of the three replicates. […] Colby's Equation (Colby, S. R. “Calculating Synergistic and Antagonistic Responses of Herbicide Combinations,” Weeds, 15(1), pp 20-22 (1967)) calculates the expected additive effect of herbicidal mixtures, and for two active ingredients is of the form:
(§5) Pa+b=Pa+Pb−(PaPb/100) • wherein Pa+b is the percentage effect of the mixture expected from additive contribution of the individual components, • Pa is the observed percentage effect of the first active ingredient at the same use rate as in the mixture, and • Pb is the observed percentage effect of the second active ingredient at the same use rate as in the mixture.

The test system of series [11] is giant foxtail (SETFA). Put plainly: Test 1 field trial, preemergence. Particulars: g a.i./ha: Atrazine 1680, S-Metolachlor 1870. The series is classed as in vivo, Setaria faberi.
Source text: as §4, §5

The subject of series [12] is large crabgrass (DIGSA). The series is described as follows: Test 5 field trial, postemergence. The series is classed as in vivo, Digitaria sanguinalis. To be noted: atrazine 1120, glufosinate 470 or glyphosate 1120 g a.i./ha alone.
Source text: as §3

Series [13] deals with corn (ZEAMD). Put plainly: Test 5 field trial, postemergence. The class given is in vivo, Zea mays ssp. indentata. Particulars: atrazine 1120, glufosinate 470 or glyphosate 1120 g a.i./ha alone.
Source text: as §3

The subject of series [14] is velvetleaf (ABUTH). The series is described as follows: Test 5 field trial, postemergence. The series is classed as in vivo, Abutilon theophrasti. Particulars: atrazine 1120, glufosinate 470 or glyphosate 1120 g a.i./ha alone.
Source text: as §3

In series [15] the test system is yellow foxtail (SETLU). The series is described as follows: Test 5 field trial, postemergence. To be noted: atrazine 1120, glufosinate 470 or glyphosate 1120 g a.i./ha alone. The class given is in vivo, Setaria glauca.
Source text: as §3

`CCNc1nc(Cl)nc(NC(C)C)n1` [Atrazine, atrazine, reference compound]: the “ZEAMD Obs” value in [1] (14 DAA), in [1] (28 DAA), in series [13] (16 DAA) and in series [13] (31 DAA) was 0% in each case. Also, the figures for the “AMBEL Obs” value in series [2] (19 DAA), in series [2] (29 DAA) and in series [2] (56 DAA) were 83%, 98% and 100%, respectively. The “IPOHE Obs” value in series [3] amounted to 37%. For the same molecule, the “SETFA Obs” value amounted to 0% in series [4] (16 DAA); 0% in [4] (31 DAA); 60% in series [6] (19 DAA); 88% in [6] (29 DAA); 67% in series [6] (56 DAA); 93 in series [11] (28 DAA). The “SETFA Obs” value in series [11] (56 DAA) amounted to 0. In addition, the “ABUTH Obs” value in series [5] amounted to 55%; in series [14] (16 DAA) it was 40%; in series [14] (31 DAA) it was 13%. Besides, in series [7], the “XANST Obs” value amounted to 40%. The “AMARE Obs” value in series [8] came out at 100%. For the same molecule, the “DIGHO Obs” value in [9] (16 DAA, atrazine 1500 or metolachlor 2500 g a.i./ha alone) was found to be 60; in [9] (30 DAA, atrazine 1500 or metolachlor 2500 g a.i./ha alone), 40; in series [9] (44 DAA, atrazine 1500 or metolachlor 2500 g a.i./ha alone) it was 20; in series [9] (62 DAA, atrazine 1500 or metolachlor 2500 g a.i./ha alone), 0; in series [9] (91 DAA, atrazine 1500 or metolachlor 2500 g a.i./ha alone), 0. Moreover, the “THLAR Obs” value in series [10] is reported as 93. The “DIGSA Obs” value in [12] (16 DAA) and in series [12] (31 DAA) was 0% throughout. For the same molecule, the “SETLU Obs” value in series [15] (16 DAA) and in series [15] (31 DAA) was 0% throughout.

`Nc1nc(C2CC2)nc(C(=O)O)c1Cl` [Compound 1, 6-amino-5-chloro-2-cyclopropyl-4-pyrimidinecarboxylic acid]: the “DIGHO Obs” value in series [9] (16 DAA, Cpd 2/Cpd 1 at 62 g a.i./ha, alone or + atrazine 1500 or metolachlor 2500) is listed as 0; in series [9] (16 DAA, Cpd 2/Cpd 1 at 125 g a.i./ha, alone or + atrazine 1500 or metolachlor 2500), 0; in series [9] (30 DAA, Cpd 2/Cpd 1 at 62 g a.i./ha, alone or + atrazine 1500 or metolachlor 2500), 0; in series [9] (30 DAA, Cpd 2/Cpd 1 at 125 g a.i./ha, alone or + atrazine 1500 or metolachlor 2500), 20; in series [9] (44 DAA, Cpd 2/Cpd 1 at 62 g a.i./ha, alone or + atrazine 1500 or metolachlor 2500), 0; in [9] (44 DAA, Cpd 2/Cpd 1 at 125 g a.i./ha, alone or + atrazine 1500 or metolachlor 2500), 20. Besides, the “DIGHO Obs” value in [9] (62 DAA, Cpd 2/Cpd 1 at 62 g a.i./ha, alone or + atrazine 1500 or metolachlor 2500) turned out to be 0; in series [9] (62 DAA, Cpd 2/Cpd 1 at 125 g a.i./ha, alone or + atrazine 1500 or metolachlor 2500) it was 0; in [9] (91 DAA, Cpd 2/Cpd 1 at 62 g a.i./ha, alone or + atrazine 1500 or metolachlor 2500), 0; in series [9] (91 DAA, Cpd 2/Cpd 1 at 125 g a.i./ha, alone or + atrazine 1500 or metolachlor 2500), 0.

As for `O=C(O)CNCP(=O)(O)O` [Glyphosate], the “ZEAMD Obs” value in series [1] (14 DAA), in series [1] (28 DAA), in [13] (16 DAA) and in series [13] (31 DAA) was 0% in each case. In addition, the “SETFA Obs” value is recorded as 100% in [4] (16 DAA) and 98% in [4] (31 DAA). Further, the results for the “DIGSA Obs” value in [12] (16 DAA) and in series [12] (31 DAA) were 98% and 95%, respectively. For the same molecule, the “ABUTH Obs” value in series [14] (16 DAA) and in [14] (31 DAA) was 84% throughout. In addition, the “SETLU Obs” value in series [15] (16 DAA) was 100%; in series [15] (31 DAA), 98%.

As for `CCc1cccc(C)c1N(C(=O)CCl)[C@@H](C)COC` [S-Metolachlor, S-metolachlor, reference compound], the “AMBEL Obs” value amounted to 32% in [2] (19 DAA), 23% in series [2] (29 DAA) and 23% in [2] (56 DAA). Further, the “IPOHE Obs” value in [3] came out at 23%. In addition, the “ABUTH Obs” value in series [5] worked out at 37%. Moreover, the “SETFA Obs” value in series [6] (19 DAA) is on record as 93%; in [6] (29 DAA), 100%; in series [6] (56 DAA), 94%; in series [11] (28 DAA), 57; in series [11] (56 DAA) it was 100. The “XANST Obs” value in [7] is on record as 30%. Also, in series [8], the “AMARE Obs” value is 100%. Also, in series [10], the “THLAR Obs” value is given as 58.
